In data set [1] the test system is flank organ hair mass in adult intact male hamsters. The data set is described as follows: efficacy of topical compositions in reducing flank organ hair mass in adult intact male hamsters (Tables I and II). It counts as in vivo, hamster. Conditions: 15 days (Mon-Fri) in 21-day interval, versus vehicle controls. Here is the method:
Summarized below in Tables I and II are the results of two experiments comparing the efficacy of several compositions in reducing the flank organ hair mass in adult intact male hamsters. In each case, hamsters were treated for 15 days (Monday-Friday) during a 21-day interval. Flank organ hairs were epilated on the first day of treatment and re-epilated on the sixth day of treatment. […] The results for percent inhibition shown below are based upon comparisons between the hair mass values of hairs harvested from treated flank organs of experimental animals and those obtained from vehicle-treated control animals.

The test system of data set [2] is androgen-mediated hair growth in male hamsters (flank organ hair mass). The data set is described as follows: inhibition of androgen-mediated hair growth in male hamsters following topical application for 21 consecutive days (flank organ hair mass). It counts as in vivo, hamster. Conditions: 500 micrograms in 10 microliters 70% ethanol, regrowth during final ten days. As for the experimental part: Five hundred micrograms of the compound in ten microliters of 70% ethanol was applied topically for 21 consecutive days. Hair mass changes were determined by comparing the regrowth of hair during the final ten days of treatment. […] Furthermore, the magnitude of hair mass inhibition in the hamsters treated with the ODC inhibitor (60%) approached that observed in 21-day castrated hamsters (78%).

In data set [3] the test system is ornithine decarboxylase (ODC), flank organ. Kind of data set: flank organ ODC activity after topical application for 21 consecutive days. It counts as in vivo, hamster. Conditions: 500 micrograms in 10 microliters 70% ethanol, versus hamsters castrated for 21 days.
The test system of data set [4] is Flank Organ Hair Mass. The data set is described as follows: similar series of experiments comparing a variety of compositions, flank organ hair mass (Table III). In kind it is in vivo, hamster. Also noted: Flank Organ Hair Mass, Untreated / Flank Organ Hair Mass, Treated: unit not given here. As for the experimental part:
Additional experiments were conducted to test topical regimens composed of a combination of 2(difluoromethyl)-2,5-diaminopentanoic acid along with antiandrogens. […] In each case, hamsters were treated for 15 days (Monday-Friday) during a 21-day interval. Flank organ hairs were epilated on the first day of treatment and re-epilated on the sixth day of treatment. The mass of flank organ hair represents the regrowth during the final 14 days of the 21-day interval.

The test system of data set [5] is brain 4-aminobutyric acid levels. Conditions: transformation catalyzed by mitochondrial monoamine oxidase; known secondary pharmacological effect; cited from earlier work.
[6] abbreviates: Table II, 500 micrograms per square centimeter.
The mark [7] stands for this setting: 5 micrograms per square centimeter.
[8] abbreviates: 50 micrograms per square centimeter.
[9] abbreviates: 250 micrograms per square centimeter.
[10] abbreviates: 500 micrograms per square centimeter.

We go through four molecules from patent publication US4720489A, “Hair growth modification with ornithine decarboxylase inhibitors” (priority 1984, dated 1988).

Turning to `CC(=O)[C@H]1CC[C@H]2[C@@H]3CCC4=CC(=O)CC[C@]4(C)[C@H]3CC[C@]12C` [Progesterone, progesterone], the “% Inhibition (flank organ hair mass)” value in data set [1] (Table I, 1000 micrograms per square centimeter) is reported as 50%.
Take `NCCCC(N)(C(=O)O)C(F)F` (stereo not shown) [2(difluoromethyl)-2,5-diaminopentanoic acid]: in data set [2], the “magnitude of hair mass inhibition” value amounted to 60%. Moreover, the “flank organ ODC activity” value in data set [3] was “reduced to levels found in hamsters castrated for 21 days”. In addition, the “% Inhibition (flank organ hair mass)” value in data set [1] (Table I, 500 micrograms per square centimeter) is listed as 46%; in data set [1] (setting [6]) it was 41%; in data set [4] (setting [7]) it was 2%; in data set [4] (setting [8]), 7%; in data set [4] (setting [9]), 24%; in data set [4] (setting [10]), 33%. Moreover, the “Flank Organ Hair Mass, Treated” value came out at 3.20 in data set [4] (setting [7]), 2.85 in data set [4] (setting [8]), 2.29 in data set [4] (setting [9]) and 1.81 in data set [4] (setting [10]). The “Flank Organ Hair Mass, Untreated” value in data set [4] (treatment group 5 micrograms per square centimeter) turned out to be 3.26; in data set [4] (treatment group 50 micrograms per square centimeter), 3.05; in data set [4] (treatment group 250 micrograms per square centimeter), 3.00; in data set [4] (treatment group 500 micrograms per square centimeter), 2.71.
Regarding `C#CC(N)CCCN` (stereo not shown) [5-hexyne-1,4-diamine], the “brain 4-aminobutyric acid levels” value in data set [5] is given as “increases in brain 4-aminobutyric acid levels”.
`CC(=O)O[C@]1(C(C)=O)CC[C@H]2[C@@H]3C=C(Cl)C4=CC(=O)CC[C@]4(C)[C@H]3CC[C@@]21C` [Chloromadinone acetate, chlormadinone acetate]: the “% Inhibition (flank organ hair mass)” value in data set [1] (setting [6]) turned out to be 41%.
